One test has as its system Kuramochi cells. The test is described as follows: BrdU cell proliferation assay (colorimetric ELISA), Kuramochi cells. In kind it is cell-based. Conditions: class symbols A-D. The method, then:
A BrdU assay was used as a measure of proliferation based on the DNA replication process of proliferating cells. BrdU, a pyrimidine analog, is added to the cell culture and incorporated into the DNA of proliferating cells. The presence of the BrdU analog was then measured through a colorimetric ELISA. After fixation and permeabilization of cells, peroxidase-conjugated antibody recognizing BrdU is added and allowed to incubate, followed by thorough washing to remove unbound antibody. In order to quantify the amount of bound antibody, peroxidase substrate is added and produces a color that can be measured at 450 nm.
On day −1, Kuramochi cells (Sekisui XenoTech JCRB0098) were seeded at 2,000 cells/well in columns 2-12 of a 96 well plate (Corning, CLS3596) in 150 uL media and allowed to adhere overnight at 37 degree with 5% CO2. In order to assess specificity of the compounds, Kuramochi RB^KO cells were also plated and treated, as RB^KO cells were not expected to show a proliferative response to CCNE/CDK specific inhibitors.
On day 0, the source plate was prepared by adding 10 mM compounds and performing 3-fold serial dilutions for a 4-point dose response of each compound. Using a multichannel pipette, 2 uL of the contents of the source plate were stamped into an intermediate plate with 500 uL of RPMI 1640 Media, GlutaMAX Supplement (Life Technologies, 61870127) in each well of a Nunc 96 DeepWell™ plate, non-treated 96 DeepWell plate, 2 mL/well, sterile, natural, 60/cs (Sigma Z717274) and mixed thoroughly. 50 uL from row A of this intermediate plate were added to rows A-H of one plate of previously seeded Kuramochi cells, and each subsequent row of the intermediate plate was added to a full plate of cells.
On day 4, the plates were developed using the BrdU ELISA Cell Proliferation Assay according to manufacturer's instructions (Roche, 11647229001). Briefly, BrdU was diluted 1:100 in Gibco®, Opti-MEM® and 20 μL/well was added, shaken for 10 minutes at 350 rpm, and then returned to the incubator for 1 hour. Following incubation, the medium was discarded, and the cells were fixed by adding 200 μL of Fix/Denature solution. The anti-BrdU peroxidase antibody was diluted 1:1000 in OptiMEM, added at 100 μL/well, and incubated while shaking (350 rpm) for one hour. Three washes with PBS were performed to remove any unbound antibody, followed by the addition of 100 μL of substrate solution to each well. […] was then added to halt the reaction, and plates were read out using an Envision spectrophotometer (Perkin Elmer) set to read 450 nm absorbance. Background absorbance values from empty wells were subtracted from all samples and then normalized to DMSO treated wells.
For orientation: In an ELISA, binding on a coated surface is turned into a signal by an enzyme label.

For another test, the target named is CDK2/Cyclin E1(14-475) (Homo sapiens, UniProt P24941). The test is described as follows: Caliper LabChip EZ Reader mobility shift assay, inhibition of CDK2/Cyclin E1 activity. In kind it is biochemical. Conditions: class symbols A-D. The method, then:
Inhibition of CDK2/Cyclin E1 activity in the presence of compounds of the present disclosure was evaluated using a Caliper LabChip® EZ Reader mobility shift assay. In the assay, activated CDK2/Cyclin E1 catalyzes the phosphorylation of a fluorescently tagged peptide 5-FAM-QSPKKG-CONH2 (PerkinElmer, FL Peptide 18) which induces a difference in capillary electrophoresis mobility. The peptide substrate and product were measured, and the conversion ratio was used to determine the inhibition (as % activity and IC50 values) of CDK2/Cyclin E1. Reactions contained 50 mM HEPES pH 7.5, 10 mM MgCl2, 1 mM EDTA, 2 mM DTT, 0.01% Brij35, 0.5 mg/mL BSA, 0.1% DMSO, 2.5 nM CDK2/Cyclin E1(14-475), 100 μM ATP, and 1.5 μM fluorescent peptide substrate.
Dose titrations of inhibitors in 100% DMSO were combined with 3.25 nM CDK2/Cyclin E1(14-475) and 130 μM of ATP in reaction buffer. The mixtures were incubated for 30 minutes before the addition of fluorescent peptide substrate to initiate the kinase reaction. The final conditions were 2.5 nM CDK2/Cyclin E1(14-475), 100 μM ATP, and 1.5 μM fluorescent peptide. The reactions were stopped after 100 minutes with the addition of EDTA (6 mM final EDTA concentration). The stopped reactions were analyzed on a Caliper LabChip® EZ Reader II. The conversion ratios were normalized to yield % activity, plotted against compound concentration, and fit to a four-parameter equation to determine the IC50 for each compound.

Consider `CNC(=O)[C@H](CCCc1ccccc1)NC(=O)C1CN(C(=O)Cc2c[nH]c3cc(Cl)ccc23)CC2CN(C(=O)c3ccc4c(c3)CC(=O)N4)CC21` (single isomer, unassigned) [I-22], for which the IC50 in the test with Kuramochi cells and at CDK2/Cyclin E1(14-475) was over 10 µM throughout.
Consider `CNC(=O)[C@H](CCCc1ccccc1)NC(=O)C1CN(C(=O)Cc2c[nH]c3cc(Cl)ccc23)CC2CN(C(=O)c3ccc4c(c3)CC(=O)N4)CC21` (single isomer, unassigned) [I-23], for which the IC50 in the test on Kuramochi cells and at CDK2/Cyclin E1(14-475) was over 10 µM in each case.
As to `CNC(=O)[C@H](CCCc1ccccc1)NC(=O)C1CN(C(=O)Cc2c[nH]c3cc(Cl)ccc23)CC2CN(C(=O)c3ccc4c(c3)n(C)c(=O)n4C(C)C)CC21` (single isomer, unassigned) [I-86], the IC50 with Kuramochi cells and on CDK2/Cyclin E1(14-475) was over 10 µM each time.
For `CNC(=O)[C@H](CCCc1ccccc1)NC(=O)C1CN(C(=O)Cc2c[nH]c3cc(Cl)ccc23)CC2CN(C(=O)c3ccc4c(c3)n(C)c(=O)n4C(C)C)CC21` (single isomer, unassigned) [I-87], the IC50 (as a rule, the concentration needed to halve the response being measured) in the test with Kuramochi cells is over 10 µM; on CDK2/Cyclin E1(14-475) it was at most 0.5 µM.
For `COc1cc(C(=O)N2CC3CN(C(=O)Cc4c[nH]c5cc(Cl)ccc45)CC(C(=O)NCC(=O)N(C)CCCc4ccccc4)C3C2)ccc1OC(C)C` (single isomer, unassigned) [I-100], the IC50 is 0.5 to 5 µM with Kuramochi cells and at most 0.5 µM on CDK2/Cyclin E1(14-475).
On to `COc1cc(C(=O)N2CC3CN(C(=O)Cc4c[nH]c5cc(Cl)ccc45)CC(C(=O)NCC(=O)N(C)CCCc4ccccc4)C3C2)ccc1OC(C)C` (single isomer, unassigned) [I-101], for which the 50% inhibitory concentration (IC50) with Kuramochi cells and at CDK2/Cyclin E1(14-475) was over 10 µM each time.
Turning to `CNC(=O)[C@H](Cc1c[nH]c2ccccc12)NC(=O)C1CN(C(=O)Cc2c[nH]c3cc(Cl)ccc23)CC2CN(C(=O)c3ccc(OC(C)C)c(OC)c3)CC21` (single isomer, unassigned) [I-110], the IC50 with Kuramochi cells and at CDK2/Cyclin E1(14-475) was over 10 µM throughout.
`CNC(=O)[C@H](Cc1c[nH]c2ccccc12)NC(=O)C1CN(C(=O)Cc2c[nH]c3cc(Cl)ccc23)CC2CN(C(=O)c3ccc(OC(C)C)c(OC)c3)CC21` (single isomer, unassigned) [I-111]: the IC50 in the test with Kuramochi cells was over 10 µM; on CDK2/Cyclin E1(14-475), at most 0.5 µM.
With `COc1cc(C(=O)N2CC3CN(C(=O)Cc4c[nH]c5cc(Cl)ccc45)CC(C(=O)N[C@H]4CCCN(Cc5ccccc5)C4)C3C2)ccc1OC(C)C` (single isomer, unassigned) [I-117], the IC50 in the test with Kuramochi cells is over 10 µM; on CDK2/Cyclin E1(14-475), 0.5 to 5 µM.
For `COc1cc(C(=O)N2CC3CN(C(=O)Cc4c[nH]c5cc(Cl)ccc45)CC(C(=O)N[C@H]4CCCN(Cc5ccccc5)C4)C3C2)ccc1OC(C)C` (single isomer, unassigned) [I-118], in that order: over 10 µM and over 10 µM.
As to `CNC(=O)[C@H](CCCc1cccc(O)c1)NC(=O)C1CN(C(=O)Cc2c[nH]c3cc(Cl)ccc23)CC2CN(C(=O)c3ccc(OC(C)C)c(OC)c3)CC21` (single isomer, unassigned) [I-152], the IC50 with Kuramochi cells and on CDK2/Cyclin E1(14-475) was over 10 µM throughout.
Regarding `CNC(=O)[C@H](CCCc1cccc(O)c1)NC(=O)C1CN(C(=O)Cc2c[nH]c3cc(Cl)ccc23)CC2CN(C(=O)c3ccc(OC(C)C)c(OC)c3)CC21` (single isomer, unassigned) [I-153], the values for the IC50 with Kuramochi cells and on CDK2/Cyclin E1(14-475) were over 10 µM and 0.5 to 5 µM, respectively.
`CNC(=O)[C@H](CCCc1ccccc1)NC(=O)C1CN(C(=O)c2cn3ccncc3n2)CC2CN(C(=O)c3ccc(OC(C)C)c(OC)c3)CC21` (single isomer, unassigned) [I-194] had an IC50 in the test on Kuramochi cells of over 10 µM.
On to `CNC(=O)[C@H](CCCc1ccccc1)NC(=O)C1CN(C(=O)c2cn3ccncc3n2)CC2CN(C(=O)c3ccc(OC(C)C)c(OC)c3)CC21` (single isomer, unassigned) [I-195], for which the IC50 in the test on Kuramochi cells and on CDK2/Cyclin E1(14-475) was over 10 µM each time.
For `CNC(=O)[C@H](CCCc1ccccc1)NC(=O)C1CN(C(=O)c2coc(Cl)n2)CC2CN(C(=O)c3ccc(OC(C)C)c(OC)c3)CC21` (single isomer, unassigned) [I-232], the IC50 with Kuramochi cells and on CDK2/Cyclin E1(14-475) was over 10 µM each time.
On to `CNC(=O)[C@H](CCCc1ccccc1)NC(=O)C1CN(C(=O)Cc2c[nH]c3cc(Cl)ccc23)CC2CN(C(=O)c3ccc(O)cc3)CC21` (some centres unmarked) [I-4], for which the IC50 on CDK2/Cyclin E1(14-475) is over 10 µM.
For `CNC(=O)[C@H](CCCc1ccccc1)NC(=O)C1CN(C(=O)Cc2c[nH]c3cc(Cl)ccc23)CC2CN(C(=O)c3ccc(OC)c(OC)c3)CC21` (some centres unmarked) [I-33], the IC50 on CDK2/Cyclin E1(14-475) fell in the range of 5 to 10 µM.
In the case of `CNC(=O)[C@H](CCCc1ccccc1)NC(=O)C1CN(C(=O)Cc2c[nH]c3cc(Cl)ccc23)CC2CN(C(=O)c3ccc4ncccc4c3)CC21` (some centres unmarked) [I-36], the IC50 at CDK2/Cyclin E1(14-475) is over 10 µM.
Turning to `CNC(=O)[C@H](CCCc1ccccc1)NC(=O)C1CN(C(=O)Cc2c[nH]c3cc(Cl)ccc23)CC2CN(C(=O)c3cccc(OC)c3)CC21` (some centres unmarked) [I-49], the IC50 with Kuramochi cells is over 10 µM.
Take `CNC(=O)[C@H](CCCc1ccccc1)NC(=O)C1CN(C(=O)Cc2c[nH]c3cc(Cl)ccc23)CC2CN(C(=O)C3CCCCC3)CC21` (some centres unmarked) [I-51]: the concentration for half-maximal inhibition (IC50) in the test on Kuramochi cells was over 10 µM.
In the test on Kuramochi cells, `CNC(=O)[C@H](CCCc1ccccc1)NC(=O)C1CN(C(=O)Cc2c[nH]c3cc(Cl)ccc23)CC2CN(C(=O)c3ccc4c(c3)CCO4)CC21` (some centres unmarked) [I-53] returned an IC50 of over 10 µM.
On to `CNC(=O)[C@H](CCCc1ccccc1)NC(=O)C1CN(C(=O)Cc2c[nH]c3cc(Cl)ccc23)CC2CN(C(=O)c3cccc(-c4cccnc4)c3)CC21` (some centres unmarked) [I-63], for which the IC50 in the test with Kuramochi cells was over 10 µM.
The same measure, in the same setting: for `CNC(=O)[C@H](CCCc1ccccc1)NC(=O)C1CN(C(=O)Cc2c[nH]c3cc(Cl)ccc23)CC2CN(C(=O)c3ncc(-c4ccccc4)s3)CC21` (some centres unmarked) [I-68] the value was over 10 µM; for `CNC(=O)[C@H](CCCc1ccccc1)NC(=O)C1CN(C(=O)Cc2c[nH]c3cc(Cl)ccc23)CC2CN(C(=O)c3ccc4oc(=O)n(C)c4c3)CC21` (some centres unmarked) [I-76], over 10 µM; for `CNC(=O)[C@H](CCCC(C)(C)C)NC(=O)C1CN(C(=O)Cc2c[nH]c3cc(Cl)ccc23)CC2CN(C(=O)c3ccc(OC(C)C)c(OC)c3)CC21` (some centres unmarked) [I-96], over 10 µM.
The compound `COc1cc(C(=O)N2CC3CN(C(=O)Cc4c[nH]c5cc(Cl)ccc45)CC(C(=O)NCCCCc4ccccc4)C3C2)ccc1OC(C)C` (centres unmarked) [I-119] returned an IC50 in the test on Kuramochi cells of over 10 µM.
Consider `CNC(=O)[C@@H](Cc1ccccc1)NC(=O)C1CN(C(=O)Cc2c[nH]c3cc(Cl)ccc23)CC2CN(C(=O)c3ccc(OC(C)C)c(OC)c3)CC21` (some centres unmarked) [I-120], for which the IC50 in the test on Kuramochi cells was over 10 µM.
For `CNC(=O)[C@@H](Cc1ccc(O)cc1)NC(=O)C1CN(C(=O)Cc2c[nH]c3cc(Cl)ccc23)CC2CN(C(=O)c3ccc(OC(C)C)c(OC)c3)CC21` (some centres unmarked) [I-121], in the test with Kuramochi cells, the IC50 is over 10 µM.
In the case of `CNC(=O)[C@H](CCCc1ccccc1)NC(=O)C1CN(C(=O)Cc2cccnc2)CC2CN(C(=O)c3ccc(OC(C)C)c(OC)c3)CC21` (some centres unmarked) [I-224], the IC50 on CDK2/Cyclin E1(14-475) was over 10 µM.
Consider `CNC(=O)[C@H](CCCc1ccccc1)NC(=O)C1CN(CCc2c[nH]c3cc(Cl)ccc23)CC2CN(C(=O)c3ccc(OC(C)C)c(OC)c3)CC21` (stereo partly drawn) [I-254, 5-(2-(6-chloro-1H-indol-3-yl)ethyl)-2-(4-isopropoxy-3-methoxybenzoyl)-N—((S)-1-(methylamino)-1-oxo-5-phenylpentan-2-yl)octahydro-1H-pyrrolo[3,4-c]pyridine-7-carboxamide], for which, on CDK2/Cyclin E1(14-475), the IC50 is over 10 µM.

The values are drawn from patent US12053459B2, “CDK2 inhibitors and methods of using the same” (Cedilla Therapeutics, Inc., priority 2021, dated 2024).
